Experimental data as given in paper PMC5845353, “The selective cathepsin K inhibitor MIV-711 attenuates joint pathology in experimental animal models of osteoarthritis” (Journal of Translational Medicine, 2018).
Marks after values point to notes of the source that are not given here.

How the values were obtained:
[1] = test system: rabbits subjected to anterior cruciate ligament transection (ACLT); experiment: Rabbit ACLT study, µCT of subchondral bone plate; type: in vivo
From the text: The animals were acquired following review and approval by the Institutional Animal Care and Use Committee (IACUC) at Numira (Salt Lake City, UT). The protocol was also reviewed and approved by the IACUC at Ibex Preclinical Research Inc. (Logan, UT). Male, New Zealand White rabbits (n = 32) were purchased from the Western Oregon Rabbit Co. (Philomath, OR). The animals were approximately 9 months old, weighed 3.7–4.5 kg at the start of the experiment and were randomized into four treatment groups based on body weight.
Pre-operative butorphanol (0.5–1.0 mg/kg, i.m.) for analgesia and glycopyrrolate (~ 0.1 mg/kg i.m.) were administered up to 15 min prior to induction. Anesthesia was induced by a mixture of ketamine (20–40 mg/kg, i.m.) and xylazine (5–10 mg/kg, i.m.), followed by placement of an endotracheal tube. General anesthesia was maintained with isoflurane. Perioperative cefazolin (40 mg/kg, i.v.) was administered, and […] (0.2 mg/kg, i.v.) was administered to reverse the effects of xylazine after endotracheal intubation was complete. A fentanyl patch (25 µg/h) was placed on a clipped area of the skin to provide post-operative analgesia. An incision of 1.5–2.5 cm was made in the skin over the medial side of the right knee under aseptic conditions. The patella was dislocated laterally and the knee placed in full flexion. The anterior cruciate ligament (ACL) was visualized and transected with an appropriate blade. In sham animals, the ACL was visualized but not transected. The joint was irrigated with sterile saline and closed. The muscle and skin were closed with suture and/or surgical glue. Butorphanol (0.5–1 mg/kg, i.m.) was administered after extubation to provide supplemental analgesia. The animals were then individually housed in stainless steel or plastic cages.
Starting 1 week after sham operation or ACLT, animals were dosed daily for 7 weeks by oral gavage with either MIV-711 (synthesized by Medivir and given as a suspension in 1% Methocel A4C in water) or vehicle (1% Methocel A4C in water) at a dose volume of 4 mL/kg. The four treatment groups (n = 7 in each group) were: (1) sham + vehicle; (2) ACLT + vehicle; (3) ACLT + MIV-711, 30 µmol/kg (low dose) and (4) ACLT + MIV-711, 100 µmol/kg (high dose).
Femora and tibias from all animals were subjected to µCT scanning without and with contrast reagent, to visualize bone and cartilage, respectively. Samples were scanned on a high-resolution, volumetric µCT scanner (μCT40, ScanCo Medical, Zurich, CH). The image data was acquired with the following parameters: 36 μm isotropic voxel resolution at 300 ms exposure time, 2000 views and 1 frame per view. Each sample was scanned twice, once for acquiring bone data and once for soft tissue data. After the bone scans, the knees were stained using hexabrix for contrast-enhanced imaging of the cartilage. The µCT-generated DICOM files were used to analyze the samples and to create volume renderings of the regions of interest (ROI). The raw data files were converted into a file format compatible with the segmentation software VHLab (Numira). VHLab was used for segmenting out the regions of interest (osteophyte, cartilage, and subchondral bone) for the femur and tibia of each sample. A region spanning 9 mm of the articulating surface of the femur and 6.5 mm of the tibia was selected for segmenting out the cartilage and subchondral bone in the anterior–posterior direction. After the segmentation process, the voxel count associated with each of the regions of interest was calculated using VHLab. The voxel count was then multiplied by the cubic voxel resolution to obtain volume measurements for the different ROI. Cartilage thickness was calculated using SCIRun (Scientific Computing and Imaging Institute, University of Utah). The distance from the bone to the outer surface of the articulating cartilage was calculated. An image was generated that translates the distances into a color map for viewing the thickness along the length of the cartilage. […]

CTX-II = experiment: Urinary CTX-II in dogs subjected to partial medial meniscectomy; type: in vivo; conditions: dog, 30 µmol/kg
Protocol: Dogs subjected to partial medial meniscectomy received either 30 µmol/kg MIV-711 (synthesized by Medivir and given as a suspension in 1% Methocel A4C; n = 15) or vehicle (1% Methocel A4C; n = 15) by orogastric gavage once daily in the morning. […] Dosing started the day before surgery and lasted through Day 28, the day before necropsy. Each dog was fasted for at least 12 h before dosing and food were returned approximately 4 h following test article administration.
Urine samples were collected from the animals 1 to 3 days before surgery and treatment (baseline sample), 4 to 7 days after the start of treatment (Day 7 sample) and 26 to 28 days after treatment (Day 28 sample). Dogs were housed in metabolic cages overnight during urine collection. […]
In rabbits, conventional CTX-I assays to assess bone resorption cannot be used due to species differences. Instead, urinary helical peptide (HP-1) concentrations were measured in rabbits using the MicroVue Helical Peptide kit (Ref: 8022) from Quidel (San Diego, CA) according to the instructions supplied by the manufacturer. In dogs, urinary levels of C-terminal telopeptide of collagen type I (CTX-I) were measured using a commercially available kit (Urine BETA CrossLaps ELISA, Ref: AC-05F1, IDS Nordic Bioscience Diagnostics A/S). […] In dogs, CTX-II levels were also measured in synovial fluid. […]

C#C[C@@H]1CN(C(=O)[C@H](CC(C)C)NC(=O)c2ccc(-c3nc(N4CCN(C)CC4)sc3F)cc2)[C@@H]2C(=O)CO[C@H]12 [MIV-711]
Subchondral bone plate Thickness, Lateral ([1]; Femur, high dose 100 µmol/kg): 321 ± 11 µm
Subchondral bone plate Thickness, Medial ([1]; Femur, high dose 100 µmol/kg): 388 ± 9 µm
Subchondral bone plate Thickness, Total ([1]; Femur, high dose 100 µmol/kg): 353 ± 8 µm
Subchondral bone plate Volume, Lateral ([1]; Femur, high dose 100 µmol/kg): 25.7 ± 1.2* mm^3
Subchondral bone plate Volume, Medial ([1]; Femur, high dose 100 µmol/kg): 29.9 ± 1.0 mm^3
Subchondral bone plate Volume, Total ([1]; Femur, high dose 100 µmol/kg): 55.6 ± 2.0* mm^3
Subchondral bone plate Thickness, Lateral ([1]; Femur, low dose 30 µmol/kg): 316 ± 10 µm
Subchondral bone plate Thickness, Medial ([1]; Femur, low dose 30 µmol/kg): 380 ± 13 µm
Subchondral bone plate Thickness, Total ([1]; Femur, low dose 30 µmol/kg): 347 ± 10 µm
Subchondral bone plate Volume, Lateral ([1]; Femur, low dose 30 µmol/kg): 25.0 ± 0.6* mm^3
Subchondral bone plate Volume, Medial ([1]; Femur, low dose 30 µmol/kg): 29.4 ± 0.8 mm^3
Subchondral bone plate Volume, Total ([1]; Femur, low dose 30 µmol/kg): 54.4 ± 0.8* mm^3
Subchondral bone plate Thickness, Lateral ([1]; Tibia, high dose 100 µmol/kg): 353 ± 12 µm
Subchondral bone plate Thickness, Medial ([1]; Tibia, high dose 100 µmol/kg): 462 ± 13 µm
Subchondral bone plate Thickness, Total ([1]; Tibia, high dose 100 µmol/kg): 401 ± 8 µm
Subchondral bone plate Volume, Lateral ([1]; Tibia, high dose 100 µmol/kg): 20.7 ± 1.0* mm^3
Subchondral bone plate Volume, Medial ([1]; Tibia, high dose 100 µmol/kg): 20.6 ± 0.5 mm^3
Subchondral bone plate Volume, Total ([1]; Tibia, high dose 100 µmol/kg): 41.2 ± 0.9* mm^3
Subchondral bone plate Thickness, Lateral ([1]; Tibia, low dose 30 µmol/kg): 326 ± 18 µm
Subchondral bone plate Thickness, Medial ([1]; Tibia, low dose 30 µmol/kg): 452 ± 15 µm
Subchondral bone plate Thickness, Total ([1]; Tibia, low dose 30 µmol/kg): 383 ± 15 µm
Subchondral bone plate Volume, Lateral ([1]; Tibia, low dose 30 µmol/kg): 18.5 ± 1.3* mm^3
Subchondral bone plate Volume, Medial ([1]; Tibia, low dose 30 µmol/kg): 20.6 ± 0.8 mm^3
Subchondral bone plate Volume, Total ([1]; Tibia, low dose 30 µmol/kg): 39.1 ± 2.0* mm^3
femur subchondral bone plate total thickness, difference vs. sham ([1]; low dose 30 µmol/kg): 0%
tibia subchondral bone plate total thickness, difference vs. sham ([1]; low dose 30 µmol/kg): 0%
urinary CTX-II levels reduced by (CTX-II; Day 7, vs. baseline): 80%
urinary CTX-II levels reduced by (CTX-II; Day 28, vs. baseline): 80%
